Test results from patent publication US9345247B2, “Azaindole carboxylic acid amides and azaindole thiocarboxylic acid amides for use as insecticides and acaricides” (BAYER CROPSCIENCE AG, priority 2012, dated 2016).
Read-outs that look alike come from different tables or passages of the source.

Assays:
Boophilus microplus = Boophilus microplus test (BOOPMI injection); assay type: in vivo; conditions: 20 μg/animal, after 7 days
Description: Boophilus microplus Test (BOOPMI Injection) [table] To produce a suitable active compound formulation, 10 mg of active compound are mixed with 0.5 ml of solvent and the concentrate is diluted with solvent to the desired concentration. The active compound solution is injected into the abdomen (Boophilus microplus), and the animals are transferred into dishes and stored in a climate-controlled room. After 7 days, the efficacy in % is determined. The activity is assessed by laying of fertile eggs. 100% means that none of the ticks has laid any fertile eggs.

[1] = test system: larvae of the mustard beetle (Phaedon cochleariae); experiment: Phaedon cochleariae spray test (PHAECO); assay type: in vivo; conditions: for efficacy / pest or weed control at 100 g/ha: 100 g/ha, spray, after 7 days; for pest or weed control at 100 g/ha: read-out: efficacy
Description: Phaedon cochleariae—Spray Test (PHAECO)
(§1) To produce a suitable preparation of active compound, 1 part by weight of active compound is mixed with the stated amounts of solvent and emulsifier, and the concentrate is diluted with emulsifier-containing water to the desired concentration.
Discs of Chinese cabbage leaves (Brassica pekinensis) are sprayed with an active compound formulation of the desired concentration and, after drying, populated with larvae of the mustard beetle (Phaedon cochleariae).
After 7 days, the efficacy in % is determined. 100% means that all the beetle larvae have been killed; 0% means that no beetle larvae have been killed.
After the stated period of time, the effect in % is determined 100% means that all the beetle larvae have been killed; 0% means that no beetle larvae have been killed.

[2] = log P by HPLC on reversed-phase column (C18), EEC directive 79/831 Annex V.A8; assay type: physicochemical; conditions: for chromatographic logP: reversed-phase HPLC column (C18)
Description: a) The determination of the W by LC-MS in the acidic range is effected at pH 2.7, acetonitrile (contains 0.1% formic acid) and water as eluents; linear gradient from 10% acetonitrile to 95% acetonitrile, instrument: Agilent 1100 LC-System, Agilent MSD System, HTS PAL. The log P values reported in the tables and Preparation Examples above were determined in accordance with EEC directive 79/831 Annex V.A8 by HPLC (High Performance Liquid Chromatography) using a reversed-phase column (C18). Temperature 43° C. The calibration is effected with unbranched alkan-2-ones (having 3 to 16 carbon atoms), for which the log P values are known.

[3] = test system: caterpillars of the armyworm (Spodoptera frugiperda); experiment: Spodoptera frugiperda spray test (SPODFR); assay type: in vivo; conditions: for efficacy: 100 g/ha, spray, after 7 days
Description: Spodoptera frugiperda—Spray Test (SPODFR)
(§2) To produce a suitable active compound formulation, 1 part by weight of active compound is mixed with the stated amounts of solvent and emulsifier, and the concentrate is diluted with emulsifier-containing water to the desired concentration.
Leaf discs of maize (Zea mays) are sprayed with an active compound formulation of the desired concentration and, after drying, populated with caterpillars of the armyworm (Spodoptera frugiperda).
After 7 days, the efficacy in % is determined. 100% means that all the caterpillars have been killed; 0% means that no caterpillars have been killed.
as §1
Leaf discs of maize (Zea mays) are sprayed with an active compound preparation of the desired concentration and, after drying, populated with caterpillars of the armyworm (Spodoptera frugiperda).
After the stated period of time, the effect in % is determined. 100% means that all the caterpillars have been killed; 0% means that no caterpillars have been killed.

adult Musca domestica = experiment: Musca domestica test (MUSCDO); assay type: in vivo; conditions: 100 ppm, after 2 days
Description: (§3) Musca domestica Test (MUSCDO) [table] To produce a suitable active compound formulation, 10 mg of active compound are mixed with 0.5 ml of dimethyl sulfoxide, and the concentrate is diluted with water to the desired concentration. Vessels containing a sponge treated with the active compound formulation of the desired concentration are populated with adult Musca domestica. After 2 days, the kill in % is determined 100% means that all flies have been killed; 0% means that no flies have been killed.

Lucilia cuprina larvae = experiment: Lucilia cuprina test (LUCICU); assay type: in vivo; conditions: 100 ppm, after 2 days
Description: as §3, with “Lucilia cuprina” for “Musca domestica”, “(LUCICU)” for “(MUSCDO)”, “horse meat” for “a sponge”, “about 20 Lucilia cuprina larvae.” for “adult Musca domestica.”, “the larvae” for “flies”, “none of the larvae” for “no flies”

[4] = test system: greenhouse red spider mite (Tetranychus urticae); experiment: Tetranychus urticae spray test, OP-resistant (TETRUR); assay type: in vivo; conditions: for efficacy: 100 g/ha, spray, after 6 days
Description: as §2
Discs of bean leaves (Phaseolus vulgaris) infested by all stages of the greenhouse red spider mite (Tetranychus urticae) are sprayed with an active compound formulation of the desired concentration.
After 6 days, the efficacy in % is determined 100% means that all the spider mites have been killed; 0% means that none of the spider mites have been killed. […]

Ctenocephalides felis = experiment: Ctenocephalides felis; oral (CTECFE); assay type: in vivo; conditions: 100 ppm, oral in cattle blood, after 2 days
Description: Ctenocephalides felis; Oral (CTECFE)
To produce a suitable active compound formulation, 10 mg of active compound are mixed with 0.5 ml of dimethyl sulphoxide. A portion of the concentrate is diluted with citrated cattle blood, and the desired concentration is prepared.
About 20 unfed adult fleas (Ctenocephalides felis) are placed into a chamber which is closed at the top and bottom with gauze. A metal cylinder whose bottom end is closed with parafilm is placed onto the chamber. The cylinder contains the blood/active compound preparation, which can be imbibed by the fleas through the parafilm membrane.
After 2 days, the kill in % is determined 100% means that all fleas have been killed; 0% means that none of the fleas have been killed.

[5] = test system: green peach aphid (Myzus persicae); experiment: Myzus persicae spray test (MYZUPE); assay type: in vivo; conditions: 100 g/ha, after 6 days
Description: Myzus persicae-Spray Test (MYZUPE) [table] To produce a suitable active compound formulation, 1 part by weight of active compound is mixed with the stated amounts of solvent and emulsifier, and the concentrate is diluted with emulsifier-containing water to the desired concentration. Discs of Chinese cabbage leaves (Brassica pekinensis) infested by all stages of the green peach aphid (Myzus persicae) are sprayed with an active compound formulation of the desired concentration. After 6 days, the efficacy in % is determined 100% means that all the aphids have been killed; 0% means that none of the aphids have been killed.

[6] = HPLC, acidic range pH 2.7, 43° C.
[7] = HPLC, acidic range pH 2.7, 43° C., read-out: log p

Structure (SMILES) | efficacy (laying of fertile eggs) (Boophilus microplus) [%] | efficacy [1] [%] | log p [2, 6] | efficacy [3] [%] | efficacy (kill) (adult Musca domestica) [%] | efficacy (kill) (Lucilia cuprina larvae) [%] | efficacy [4] [%] | efficacy (kill) (Ctenocephalides felis) [%] | pest or weed control at 100 g/ha ([1]; Phaedon cochleariae, 168 h) [%] | chromatographic logP [2, 7] | Emax at 100 g/ha ([4]; Tetranychus urticae, 144 h, TETRUR, 100 g of ai/ha, 6 d, read-out: % Efficacy dat) [%] | percent efficacy (larval mortality) at 0.8 g/ha ([1]; Phaedon cochleariae, 168 h, PHAECO, 0.8 g of ai/ha, 7 d, read-out: % Efficacy dat) [%] | Emax at 4 g/ha ([3]; Spodoptera frugiperda, 168 h, SPODFR, 4 g of ai/ha, 7 d, read-out: % Efficacy dat) [%] | Emax at 4 g/ha ([4]; Tetranychus urticae, 144 h, TETRUR, 4 g of ai/ha, 6 d, read-out: % Efficacy dat) [%] | efficacy [5] [%] | chromatographic logP ([2]; pH 2.7, final compounds of the synthesis examples, read-out: log P (HPLC-MS))
CCn1c(C(=O)NC(c2cc(Cl)c(F)c(Cl)c2F)C(F)(F)F)cc2cc(C(=O)NC3(C(N)=S)CC3)c(Cl)nc21 (centres unmarked) [Compound 63] | 100 | 100 | 4.20 | 100 | 100 | 100 | 90 | 100 | – | – | – | – | – | – | – | –
CCn1c(C(=O)NC(c2ccc(F)c(C(F)(F)F)c2)C(F)(F)F)cc2cc(C(=O)NC3(C#N)CC3)c(Cl)nc21 (centres unmarked) [Compound 53] | 100 | 100 | 3.77 | 100 | 100 | 100 | 100 | 100 | – | – | – | – | – | – | – | –
CCn1c(C(=O)NC(c2ccc(Cl)c(Cl)c2)C(F)(F)F)cc2cc(C(=O)NC3(C#N)CC3)c(Cl)nc21 (centres unmarked) [Compound 32] | 100 | 100 | 3.94 | 100 | 100 | 100 | 100 | 100 | – | – | – | – | – | – | – | –
CCn1c(C(=O)NC(c2cccc(C(F)(F)F)c2)C(F)(F)F)cc2cc(C(=O)NCC#N)c(Cl)nc21 (centres unmarked) [Compound 42] | 100 | – | – | – | 100 | 100 | 90 | 100 | 100 | 3.5 | 90 | – | – | – | – | –
CCn1c(C(=O)NC(c2ccc(F)c(C(F)(F)F)c2)C(F)(F)F)cc2cc(C(=O)NC3CC3)c(Cl)nc21 (centres unmarked) [Compound 29] | 100 | 100 | – | 100 | 100 | 100 | 90 | 95 | – | – | – | – | – | – | – | –
CCn1c(C(=O)NC(c2ccc(F)c(Cl)c2)C(F)(F)F)cc2cc(C(=O)NC3(C(N)=S)CC3)c(Cl)nc21 (centres unmarked) [Compound 65] | 100 | 100 | 3.51 | 100 | 80 | 100 | 90 | 100 | – | – | – | – | – | – | – | –
CCn1c(C(=O)NC(c2cccc(C(F)(F)F)c2)C(F)(F)F)cc2cc(C(=O)NC3CC3)c(Cl)nc21 (centres unmarked) [Compound 12] | 100 | 100 | 3.70 | 100 | 100 | 100 | 100 | 100 | – | – | – | – | – | – | – | –
Cn1c(C(=O)NC(c2cccc(C(F)(F)F)c2)C(F)(F)F)cc2cc(C(=O)NC3CC3)c(Cl)nc21 (centres unmarked) [Compound 22] | 100 | – | – | 100 | 100 | 100 | 100 | 95 | 100 | 3.4 | – | 100 | 100 | 90 | – | –
CCn1c(C(=O)NC(c2cccc(C(F)(F)F)c2)C(F)(F)F)cc2cc(C(=O)NC3CCC3)c(Cl)nc21 (centres unmarked) [Compound 15] | – | 100 | 4.12 | – | – | – | – | – | – | – | – | – | – | – | 90 | –
CCn1c(C(=O)NC(c2ccc(F)c(Cl)c2)C(F)(F)F)cc2cc(C(=O)NC3(C#N)CC3)c(Cl)nc21 (centres unmarked) [Compound 26] | 100 | 100 | 3.62 | 100 | 100 | 100 | 100 | 100 | – | – | – | – | – | – | 100 | –
CCn1c(C(=O)NC(c2cc(Cl)c(F)c(Cl)c2)C(F)(F)F)cc2cc(C(=O)NC3(C(N)=S)CC3)c(Cl)nc21 (centres unmarked) [Compound 64] | 100 | 100 | 3.97 | 100 | 100 | 100 | 100 | 100 | – | – | – | – | – | – | – | –
CCn1c(C(=O)NC(c2cccc(C(F)(F)F)c2)C(F)(F)F)cc2cc(C(=O)NC3(C#N)CC3)c(Cl)nc21 (centres unmarked) [Compound 11] | 100 | 100 | 3.68 | 100 | 100 | 100 | 100 | 100 | – | – | – | – | – | – | 100 | –
CCn1c(C(=O)NC(c2ccc(F)c(C(F)(F)F)c2)C(F)(F)F)cc2cc(C(=O)NC3(C#N)CC3)c(C)nc21 (centres unmarked) [Compound 75] | – | 100 | 3.64 | 100 | – | – | 100 | – | – | – | – | – | – | – | 90 | –
CCn1c(C(=O)NC(c2cccc(C(F)(F)F)c2)C(F)(F)F)cc2cc(C(=O)NC3CC3)c(C)nc21 (centres unmarked) [Compound 1, N^5-Cyclopropyl-1-ethyl-6-methyl-N^2-{2,2,2-trifluoro-1-[3-(trifluoromethyl)phenyl]ethyl}-1H-pyrrolo[2,3-b]pyridine-2,5-dicarboxamide] | 100 | – | – | 100 | 100 | 100 | 90 | 100 | 100 | – | – | – | – | – | – | 3.52
CCn1c(C(=O)NC(c2cc(Cl)c(F)c(Cl)c2)C(F)(F)F)cc2cc(C(=O)NC3(C#N)CC3)c(Cl)nc21 (centres unmarked) [Compound 27] | 100 | 100 | 4.11 | 100 | 100 | 100 | 100 | 100 | – | – | – | – | – | – | – | –
